Where two headings read alike, the source gives them in different places.
Key:
DAT [1] = biological target: T1, DAT (Rattus norvegicus, UniProt P23977); design: from tissue; host or cells: rat striatum (synaptosomes; homogenate); details: literature values [33], [34]; read-out: IC50, DA uptake under similar conditions; cited from earlier work
aqueous solubility = assay type: physicochemical
Text: Lobinaline (FIG. 1), was isolated from plant material and identified as the first-known binitrogenous plant alkaloid more than 80 years ago [27]. The applicants began to test its pharmacological activity after identifying Lobelia cardinalis as a novel source of nicAChR activity by high throughput screening in 2005 [26]. This plant species has no history of abuse, or traditional medicinal use of relevance to SUDs. […] These actions support lobinaline as a lead compound for the treatment of SUDs, particularly alcohol and nicotine use disorders. […] Lobinaline also appears to have appropriate pharmacokinetics and low toxicity. […] Conversely, this makes it a good test of the ability of target-directed evolution to generate novel inhibitors of the DAT in mutant plant cells.
Lobinaline and the “mono”-N-oxide were separated from plant and culture material by acid/base extraction, but the bi-N-oxide was derived from lobinaline using 3-chloroperbenzoic acid. All these compounds were separated by column chromatography with identity and purity confirmed by LC/MS.

nicAChRs [2] = experiment: displacement of [3H]epibatidine from rat brain homogenates; assay type: binding
DAT [3] = biological target: T1, DAT; experiment: [3H]DA uptake into rat striatal synaptosomes; assay type: biochemical; design: from tissue; host or cells: rat striatum (synaptosomes; homogenate); details: compound added 15 min before [3H]DA, 30 min at 37° C, read-out: IC50, inhibition of [3H]-DA uptake
Description: Lobinaline or the N-oxides were added 15 min before addition of [3H]DA. Synaptosomal uptake of [3H]DA was measured after 30 min incubation at 37° C.

DAT [4] = biological target: T1, DAT; experiment: DA clearance in striatum of anesthetized rats by in vivo electrochemistry (high-speed chronoamperometry), Example 8; design: DA clearance in striatum and nucleus accumbens of urethane-anesthetized SD rats; from tissue; host or cells: striatum / nucleus accumbens of living anesthetized SD rats; species or system SD rats; details: for reduction in DA clearance: striatum, 1 minute after local application (lobinaline ~250 nl 1 mM; 403, 419 ~300 nl 250 μM), FIGS. 7-9; for increase in amplitude of DA signal: ~300 nl, 250 μM local application, FIGS. 8, 9
Description: DA clearance in striatum and nucleus accumbens of urethane-anesthetized SD rats was monitored by in vivo electrochemistry using high-speed chrono-amperometry [see 36]. After obtaining reproducible signals for locally applied DA, vehicle or drug was applied slowly over 10-30 sec, then 30-60 sec later the next application of DA was made, with subsequent DA applications at 5-minute intervals for 25-30 min. The DA kinetic data from each animal was analyzed using FAST software (Quanteon). […] These effects were no longer seen 3-5 minutes after lobinaline ejection. They are consistent with simple competitive inhibition of the DAT by lobinaline. […] However, the lobinaline N-oxides produce different effects. Representative data from lobinaline N-oxide, at the same concentration used for lobinaline (1 mM in 250 nl medium) are shown in FIG. 6. […] This is entirely consistent with effects on synaptosomal [3H]DA uptake in vitro above, and probably represents competitive inhibition. However, after exposure to the N-oxide there is a significant and prolonged (c20 min) increase in the first order rate of decay of the DA peak. […] This increase in rate constant induced by the N-oxide varied from 20× to 2× at increasing depths in the DV gradient.
The uptake rate of locally applied DA (˜100 nl; 200 μM) was measured before and 1 minute after local application of lobinaline (˜250 nl; 1 mM), 403 (˜300 nl; 250 μM) or 419 (˜300 nl; 250 μM) (FIGS. 7, 8, and 9).

DAT [5] = biological target: T1, DAT; experiment: dopamine uptake in striatum of isoflurane-anesthetized rats by in vivo electrochemistry, Examples 19-20; design: DA clearance in striatum and nucleus accumbens of urethane-anesthetized SD rats; from tissue; host or cells: striatum / nucleus accumbens of living anesthetized SD rats; species or system SD rats
Description: After obtaining reproducible signals for locally applied DA (50-75 nl, 200 μM) to produce a control DA peak height below 1 uM, vehicle or drug was locally applied slowly over 10-30 sec (˜500 nl 250 μM), then 60 sec later the next application of DA was performed, with subsequent DA applications at 5-min intervals for 25 min. […] The DA kinetic data from each animal were analyzed using FAST software (Quanteon, LLC, Nicholasville KY USA). […] These parameters were compared between pre- and post-drug application by one-way ANOVA with Tukey's post hoc analysis, with significance assigned at p<0.05.

[6] = conditioned place preference (abuse potential); assay type: in vivo, SD rats
Text: In conditioned place preference a chamber with distinct cues is repeatedly paired with administration of the test drug. A second chamber is repeatedly paired with a control injection. After conditioning, a test phase allows the rat to move between the chambers. If a drug is “rewarding” (i.e. has abuse potential), the rat spends more time in the drug-associated chamber. If it is aversive, the opposite result is obtained.
Methods: 6 male and 6 female SD rats were used for each drug and dose. Test drugs (5 or 25 mg/kg lobinaline, or 25 mg/Kg of lobinaline bi-N-oxide S.C) were paired with the “less preferred” compartment (standard for drugs that may be weakly reinforcing) for 20 minutes. On the next day, rats received a control (DMSO/saline) injection and were placed in the preferred chamber. After three repeated pairings (test and control), the subjects were given access to both chambers and the time spent in each compartment was recorded and scored by an observer blind to treatment. Analysis was by two way ANOVA with post hoc Bonnferoni with significance set at p<0.05. Results. Most animals spent most of the test period in the compartment originally preferred in the drug-free state, and there were no significant differences between drug and vehicle controls.

[7] = Drinking in the dark model of binge drinking; assay type: in vivo, C57Bl/6J mice; details: 25 mg/Kg SC
Description: “Drinking in the dark” is a model for binge drinking in which C57Bl/6J mice are given limited access to alcohol during their dark cycle. With repeated daily access, mice will voluntarily drink to blood alcohol levels above 150 mg/dl. Lobeline reduces alcohol consumption in this model and it has predictive validity in that both naltrexone and acamprosate are active.
Methods: 8 male and 8 female mice were used for each of these studies and scoring was by an observer blind to treatment. Statistical analysis was by ANOVA followed by Bonnferoni posthoc with significance at p<0.05.

[8] = nicotine-induced locomotor activation (LMA), open field; assay type: in vivo, SD rats
Description: low S.C. doses of nicotine, repeated daily, cause progressive LMA related to mesolimbic DA release. This is reduced by lobeline and varenicline and therefore has predictive value as a screen for potential therapeutics in nicotine use disorder.
Methods: 2 groups of 6 adult SD rats of each sex were tested in an open-field apparatus for LMA. Each animal received a daily nicotine injection (0.5 mg/Kg SC) for 6 days with the last nicotine injection preceded (20 min) by 25 mg/Kg SC of lobinaline bi-N-oxide. Behavior was recorded and scored by an observer blind to treatment. Data was presented as line crosses/5 minutes with LMA over days 1-5 compared to LMA on day 6.

nicAChR = experiment: 45Ca2+ entry into SHSY5Y cells; assay type: cell-based; details: SHSY5Y cells; antagonist 1 uM
Text: Effects of lobinaline and nicotine on ^45Ca^2+ entry into SHSY5Y cells: nicAChR function can be evaluated semi-quantitatively in this cell line by measuring ^45Ca^2+ entry in response to nicotine. […] The lobinaline N-oxides have not yet been tested in this system.

nicAChRs [9] = experiment: [3H]DA release from superfused rat striatal slices; assay type: cell-based; details: antagonist 10 μM
Description: Effects of lobinaline and nicotine on [3H]DA release from superfused rat striatal slices (ref 5): rat brain striatal slices were incubated with [3H]DA for 30 min at […] before transfer to superfusion chambers. […] To evaluate the role of nicAChRs, striatal slices preloaded with [3H]-DA were pretreated with the nicAChR antagonist mecamylamine (10 μM) prior to superfusion of lobinaline (100 μM). […] With the data above from SHSY5Y cells, this supports a partial agonist action of lobinaline at nicAChRs. The N-oxides have not yet been tested in this system. Lobinaline has weak agonist effects on nicAChRs, but also has as yet unquantified antagonist effects (i.e. it acts as a partial agonist at nicAChRs).

T1 sequence (P23977 whole entry): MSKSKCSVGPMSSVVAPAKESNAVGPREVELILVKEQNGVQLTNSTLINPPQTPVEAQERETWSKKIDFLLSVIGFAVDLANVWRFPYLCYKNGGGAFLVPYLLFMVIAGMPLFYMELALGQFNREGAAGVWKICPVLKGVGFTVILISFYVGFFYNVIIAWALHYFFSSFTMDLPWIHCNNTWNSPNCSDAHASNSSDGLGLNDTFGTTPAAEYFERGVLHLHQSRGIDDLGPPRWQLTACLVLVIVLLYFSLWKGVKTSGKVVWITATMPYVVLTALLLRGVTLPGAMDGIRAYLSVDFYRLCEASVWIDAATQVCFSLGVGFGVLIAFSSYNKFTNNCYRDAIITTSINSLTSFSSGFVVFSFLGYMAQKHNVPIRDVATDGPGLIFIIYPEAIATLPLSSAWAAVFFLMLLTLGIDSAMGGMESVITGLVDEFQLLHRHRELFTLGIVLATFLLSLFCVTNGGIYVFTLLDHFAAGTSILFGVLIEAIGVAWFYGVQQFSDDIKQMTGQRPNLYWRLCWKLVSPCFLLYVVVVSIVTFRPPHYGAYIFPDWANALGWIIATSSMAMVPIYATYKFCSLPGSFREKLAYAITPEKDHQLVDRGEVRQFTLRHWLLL

CC(NC(C)(C)C)C(=O)c1cccc(Cl)c1 (centres unmarked) [bupropion]
IC50 (DAT [1]): 1.9 µM

C[N+]1([O-])CCCC2C(c3ccccc3)C(C3=NCCCC3)C(c3ccccc3)CC21 (centres unmarked) [lobinaline N-oxide, lobinaline mono-N-oxide]
aqueous solubility (aqueous solubility): much more soluble than lobinaline | character of [3H]epibatidine displacement (nicAChRs [2]): more weakly with a multiphasic displacement curve | IC50 (DAT [3]): 0.517 µM | increase in amplitude of the DA signal (DAT [4]; 1 mM in 250 nl medium, FIG. 6): twofold increase | duration of increase in first order rate of decay of the DA peak (DAT [4]; after exposure, 1 mM in 250 nl): ~20 min | increase in first order rate constant of DA decay (DAT [4]; dorso-ventral position −5.5 mm, remains after 16 minutes): about three-fold | reduction in DA clearance (DAT [4]): 60% | increase in amplitude of DA signal (DAT [4]): doubling | DA clearance parameters, dorsal striatum, early changes (DAT [5]; DV-3.5 to DV-5.5 mm, FIG. 12): increase in T80 and clearance rate that reflects the increase in peak amplitude, with no change in k−1 | DA peak amplitude, dorsal striatum (DAT [5]; DV-3.5 to DV-5.5 mm, up to 26 minutes after micro-injection, FIG. 12): marked and prolonged (but variable) increase | DA peak amplitude, ventral striatum (DAT [5]; DV-6 to −7.5 mm (shell of nucleus accumbens), up to 26 minutes, FIG. 13): marked and consistent increase | DA clearance parameters, ventral striatum (DAT [5]; DV-6 to −7.5 mm, FIG. 13): increase in clearance rate and k−1 at 21 and 26 minutes | DA clearance parameters, dorsal striatum, later (DAT [5]; after 11-26 minutes, FIG. 12): increase in both uptake rate and k−1 with little change in T80 | duration of increase in DA amplitude (DAT [5]; over four local applications of dopamine): at least 20 minutes | effect on DA clearance parameters (DAT [5]; relative to % control): reduced immediately after microinjection but increased later | effect on amplitude of the DA signal (DAT [5]; single local application ~500 nl 250 μM, striatum, FIGS. 10, 11): increase in amplitude

C[N+]1([O-])CCCC2C(c3ccccc3)C(C3=[N+]([O-])CCCC3)C(c3ccccc3)CC21 (centres unmarked) [lobinaline bi-N-oxide]
Ki (nicAChRs [2]): 6.5 µM | character of [3H]epibatidine displacement (nicAChRs [2]): monophasically displaced | overt toxicity ([6]; after 3 repeated drug administrations): no signs of overt toxicity | sedation or locomotor activation ([6]; lobinaline 5 or 25 mg/kg, bi-N-oxide 25 mg/Kg S.C): no sedation or locomotor activation | conditioned place preference or aversion ([6]; lobinaline 5 or 25 mg/kg, bi-N-oxide 25 mg/Kg S.C, three pairings): neither lobinaline nor the lobinaline bi-N-oxide produced conditioned place preference or aversion | food or water intake [7]: no reduction in food or water intake | overt toxicity [7]: neither compound produced overt toxicity | effect on nicotine-induced LMA sensitization trend ([8]; 25 mg/Kg SC 20 min before nicotine 0.5 mg/Kg SC on day 6): reversed in both sexes | individual animals showing the same trend ([8]; day 6 vs days 1-5, repeated measures): 10/12 | IC50 (DAT [3]): 1.19 µM | effects on the DAT in vivo compared with mono-N-oxide (DAT [4]; rat, in vivo): less potent than the “natural” mono-N-oxide | reduction in DA clearance (DAT [4]): 40% | increase in amplitude of DA signal (DAT [4]): 4 fold

CNC1(C)C2CCC(C2)C1(C)C (centres unmarked) [mecamylamine]
inhibition of lobinaline-fraction-evoked 45Ca2+ entry by antagonist (nicAChR): completely inhibited | effect of antagonist pretreatment on lobinaline (100 μM)-evoked fractional [3H] release (nicAChRs [9]): significantly attenuated

From patent US12539298B2, “Lobinaline N-oxides as positive allosteric modulators of the dopamine transporter with potential value in the treatment of substance abuse disorders” (University of Kentucky Research Foundation, priority 2019, dated 2026)
